Data: the supplement of paper PMC8671470

Each compound was assayed on KCL-22. Settings: 72 h.
How it was run: (§1)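 Seeded in RPMI 1640 at densities within the linear growth range, fifteen myeloid leukaemia cell lines were dispensed into 384-well plates with acoustically pre-printed compounds spanning five tenfold doses from 1 to 10,000 nM, in duplicate. The plates were kept for 72 h at 37 °C in 5% CO2 before luminescent ATP viability was measured and normalised to vehicle and to a positive control at 10 µM. Curves were fitted with a four-parameter log-logistic model. The IC50 was taken from those curves.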

| Structure (SMILES) | IC50 (cell viability) |
| --- | --- |
| O=C(NCCCCCCNC(=O)ONC1=CCCCC1)ONC1=CCCCC1 | > 10 µM |
| O=C(C1CC1)N1CC[C@@H](C=C2NNC(=O)N2c2ccc(-c3ccc4occc4c3)cc2)C1 | 9.06 µM |
| CCCCCCCCCCCC(=O)c1c(O)c(C(=O)CCCCCCCCCCC)c(O)c(C2CC(c3ccc(O)cc3)Oc3cc(O)ccc32)c1O (stereo not given) | > 10 µM |
| NC(=O)c1cccc(-c2cccc(OC(=O)NC3CCCCC3)c2)c1 [URB-597] | > 10 µM |
| O=C1O[C@H]([C@@H](O)CO)C(O)=C1O [Vitamin C (ascorbate)] | > 10 µM |

These compounds were tested on Mono-Mac-6. Settings: 72 h.
How it was run: as §1

| Structure (SMILES) | IC50 (cell viability) |
| --- | --- |
| O=C(O)C[C@@]1(O)C[C@@H](CCCCCCc2ccc(Cl)cc2Cl)OC1=O | > 10 µM |
| O=C(NCCCCCCNC(=O)ONC1=CCCCC1)ONC1=CCCCC1 | > 10 µM |
| O=C(C1CC1)N1CC[C@@H](C=C2NNC(=O)N2c2ccc(-c3ccc4occc4c3)cc2)C1 | > 10 µM |
| CCCCCCCCCCCC(=O)c1c(O)c(C(=O)CCCCCCCCCCC)c(O)c(C2CC(c3ccc(O)cc3)Oc3cc(O)ccc32)c1O (stereo not given) | > 10 µM |
| NC(=O)c1cccc(-c2cccc(OC(=O)NC3CCCCC3)c2)c1 [URB-597] | > 10 µM |
| O=C1O[C@H]([C@@H](O)CO)C(O)=C1O [Vitamin C (ascorbate)] | > 10 µM |

Each compound was assayed on HEL. Settings: 72 h.
How it was run: as §1

| Structure (SMILES) | IC50 (cell viability) |
| --- | --- |
| O=C(O)C[C@@]1(O)C[C@@H](CCCCCCc2ccc(Cl)cc2Cl)OC1=O | > 10 µM |
| O=C(NCCCCCCNC(=O)ONC1=CCCCC1)ONC1=CCCCC1 | > 10 µM |
| O=C(C1CC1)N1CC[C@@H](C=C2NNC(=O)N2c2ccc(-c3ccc4occc4c3)cc2)C1 | > 10 µM |
| CCCCCCCCCCCC(=O)c1c(O)c(C(=O)CCCCCCCCCCC)c(O)c(C2CC(c3ccc(O)cc3)Oc3cc(O)ccc32)c1O (stereo not given) | > 10 µM |
| NC(=O)c1cccc(-c2cccc(OC(=O)NC3CCCCC3)c2)c1 [URB-597] | > 10 µM |
| O=C1O[C@H]([C@@H](O)CO)C(O)=C1O [Vitamin C (ascorbate)] | > 10 µM |

The compounds below were run on THP-1. Settings: 72 h.
How it was run: as §1

| Structure (SMILES) | IC50 (cell viability) |
| --- | --- |
| O=C(O)C[C@@]1(O)C[C@@H](CCCCCCc2ccc(Cl)cc2Cl)OC1=O | > 10 µM |
| O=C(NCCCCCCNC(=O)ONC1=CCCCC1)ONC1=CCCCC1 | > 10 µM |
| O=C(C1CC1)N1CC[C@@H](C=C2NNC(=O)N2c2ccc(-c3ccc4occc4c3)cc2)C1 | > 10 µM |
| CCCCCCCCCCCC(=O)c1c(O)c(C(=O)CCCCCCCCCCC)c(O)c(C2CC(c3ccc(O)cc3)Oc3cc(O)ccc32)c1O (stereo not given) | > 10 µM |
| NC(=O)c1cccc(-c2cccc(OC(=O)NC3CCCCC3)c2)c1 [URB-597] | > 10 µM |
| O=C1O[C@H]([C@@H](O)CO)C(O)=C1O [Vitamin C (ascorbate)] | > 10 µM |

These compounds were tested on HL-60. Settings: 72 h.
How it was run: as §1

| Structure (SMILES) | IC50 (cell viability) |
| --- | --- |
| O=C(O)C[C@@]1(O)C[C@@H](CCCCCCc2ccc(Cl)cc2Cl)OC1=O | > 10 µM |
| O=C(NCCCCCCNC(=O)ONC1=CCCCC1)ONC1=CCCCC1 | > 10 µM |
| O=C(C1CC1)N1CC[C@@H](C=C2NNC(=O)N2c2ccc(-c3ccc4occc4c3)cc2)C1 | 0.0437 µM |
| CCCCCCCCCCCC(=O)c1c(O)c(C(=O)CCCCCCCCCCC)c(O)c(C2CC(c3ccc(O)cc3)Oc3cc(O)ccc32)c1O (stereo not given) | > 10 µM |
| NC(=O)c1cccc(-c2cccc(OC(=O)NC3CCCCC3)c2)c1 [URB-597] | > 10 µM |
| O=C1O[C@H]([C@@H](O)CO)C(O)=C1O [Vitamin C (ascorbate)] | > 10 µM |

The compounds below were run on ML-2. Settings: 72 h.
How it was run: as §1

| Structure (SMILES) | IC50 (cell viability) |
| --- | --- |
| O=C(O)C[C@@]1(O)C[C@@H](CCCCCCc2ccc(Cl)cc2Cl)OC1=O | > 10 µM |
| O=C(NCCCCCCNC(=O)ONC1=CCCCC1)ONC1=CCCCC1 | > 10 µM |
| O=C(C1CC1)N1CC[C@@H](C=C2NNC(=O)N2c2ccc(-c3ccc4occc4c3)cc2)C1 | > 10 µM |
| CCCCCCCCCCCC(=O)c1c(O)c(C(=O)CCCCCCCCCCC)c(O)c(C2CC(c3ccc(O)cc3)Oc3cc(O)ccc32)c1O (stereo not given) | > 10 µM |
| NC(=O)c1cccc(-c2cccc(OC(=O)NC3CCCCC3)c2)c1 [URB-597] | > 10 µM |
| O=C1O[C@H]([C@@H](O)CO)C(O)=C1O [Vitamin C (ascorbate)] | > 10 µM |

What follows are compounds tested on SHI-1. Settings: 72 h.
How it was run: as §1

| Structure (SMILES) | IC50 (cell viability) |
| --- | --- |
| O=C(O)C[C@@]1(O)C[C@@H](CCCCCCc2ccc(Cl)cc2Cl)OC1=O | > 10 µM |
| O=C(NCCCCCCNC(=O)ONC1=CCCCC1)ONC1=CCCCC1 | > 10 µM |
| O=C(C1CC1)N1CC[C@@H](C=C2NNC(=O)N2c2ccc(-c3ccc4occc4c3)cc2)C1 | > 10 µM |
| CCCCCCCCCCCC(=O)c1c(O)c(C(=O)CCCCCCCCCCC)c(O)c(C2CC(c3ccc(O)cc3)Oc3cc(O)ccc32)c1O (stereo not given) | > 10 µM |
| NC(=O)c1cccc(-c2cccc(OC(=O)NC3CCCCC3)c2)c1 [URB-597] | > 10 µM |
| O=C1O[C@H]([C@@H](O)CO)C(O)=C1O [Vitamin C (ascorbate)] | > 10 µM |

The compounds below were run on NOMO-1. Settings: 72 h.
How it was run: as §1

| Structure (SMILES) | IC50 (cell viability) |
| --- | --- |
| O=C(O)C[C@@]1(O)C[C@@H](CCCCCCc2ccc(Cl)cc2Cl)OC1=O | > 10 µM |
| O=C(NCCCCCCNC(=O)ONC1=CCCCC1)ONC1=CCCCC1 | > 10 µM |
| O=C(C1CC1)N1CC[C@@H](C=C2NNC(=O)N2c2ccc(-c3ccc4occc4c3)cc2)C1 | > 10 µM |
| CCCCCCCCCCCC(=O)c1c(O)c(C(=O)CCCCCCCCCCC)c(O)c(C2CC(c3ccc(O)cc3)Oc3cc(O)ccc32)c1O (stereo not given) | > 10 µM |
| NC(=O)c1cccc(-c2cccc(OC(=O)NC3CCCCC3)c2)c1 [URB-597] | > 10 µM |
| O=C1O[C@H]([C@@H](O)CO)C(O)=C1O [Vitamin C (ascorbate)] | > 10 µM |

Each compound was assayed on MOLM-13. Settings: 72 h.
How it was run: as §1

| Structure (SMILES) | IC50 (cell viability) |
| --- | --- |
| O=C(O)C[C@@]1(O)C[C@@H](CCCCCCc2ccc(Cl)cc2Cl)OC1=O | > 10 µM |
| O=C(NCCCCCCNC(=O)ONC1=CCCCC1)ONC1=CCCCC1 | > 10 µM |
| O=C(C1CC1)N1CC[C@@H](C=C2NNC(=O)N2c2ccc(-c3ccc4occc4c3)cc2)C1 | 1.47 µM |
| CCCCCCCCCCCC(=O)c1c(O)c(C(=O)CCCCCCCCCCC)c(O)c(C2CC(c3ccc(O)cc3)Oc3cc(O)ccc32)c1O (stereo not given) | > 10 µM |
| NC(=O)c1cccc(-c2cccc(OC(=O)NC3CCCCC3)c2)c1 [URB-597] | > 10 µM |
| O=C1O[C@H]([C@@H](O)CO)C(O)=C1O [Vitamin C (ascorbate)] | > 10 µM |

These compounds were tested on LAMA-84. Settings: 72 h.
How it was run: as §1

| Structure (SMILES) | IC50 (cell viability) |
| --- | --- |
| O=C(O)C[C@@]1(O)C[C@@H](CCCCCCc2ccc(Cl)cc2Cl)OC1=O | > 10 µM |
| O=C(NCCCCCCNC(=O)ONC1=CCCCC1)ONC1=CCCCC1 | > 10 µM |
| O=C(C1CC1)N1CC[C@@H](C=C2NNC(=O)N2c2ccc(-c3ccc4occc4c3)cc2)C1 | > 10 µM |
| CCCCCCCCCCCC(=O)c1c(O)c(C(=O)CCCCCCCCCCC)c(O)c(C2CC(c3ccc(O)cc3)Oc3cc(O)ccc32)c1O (stereo not given) | > 10 µM |
| NC(=O)c1cccc(-c2cccc(OC(=O)NC3CCCCC3)c2)c1 [URB-597] | > 10 µM |
| O=C1O[C@H]([C@@H](O)CO)C(O)=C1O [Vitamin C (ascorbate)] | > 10 µM |

Each compound was assayed on MV4-11. Settings: 72 h.
How it was run: as §1

| Structure (SMILES) | IC50 (cell viability) |
| --- | --- |
| O=C(O)C[C@@]1(O)C[C@@H](CCCCCCc2ccc(Cl)cc2Cl)OC1=O | > 10 µM |
| O=C(NCCCCCCNC(=O)ONC1=CCCCC1)ONC1=CCCCC1 | > 10 µM |
| O=C(C1CC1)N1CC[C@@H](C=C2NNC(=O)N2c2ccc(-c3ccc4occc4c3)cc2)C1 | > 10 µM |
| CCCCCCCCCCCC(=O)c1c(O)c(C(=O)CCCCCCCCCCC)c(O)c(C2CC(c3ccc(O)cc3)Oc3cc(O)ccc32)c1O (stereo not given) | > 10 µM |
| NC(=O)c1cccc(-c2cccc(OC(=O)NC3CCCCC3)c2)c1 [URB-597] | > 10 µM |
| O=C1O[C@H]([C@@H](O)CO)C(O)=C1O [Vitamin C (ascorbate)] | > 10 µM |
